Legend:
[1] = target: T1, Human recombinant MAO-B (hMAO-B) (Homo sapiens, UniProt P27338); test: MAO-B enzyme assay (Amplex Red, resorufin fluorescence); assay type: biochemical; conditions: for Selectivity Index (SI): IC50 (MAO-A)/IC50 (MAO-B); for IC50: five doses 10-0.001 µM, triplicate; for % Inhibition of MAO-B at 10 µM / inhibition at 10 µM: single dose 10 µM
T1 construct: purchased Sigma Aldrich; host or cells: insect cells
T1 sequence (P27338 1-520): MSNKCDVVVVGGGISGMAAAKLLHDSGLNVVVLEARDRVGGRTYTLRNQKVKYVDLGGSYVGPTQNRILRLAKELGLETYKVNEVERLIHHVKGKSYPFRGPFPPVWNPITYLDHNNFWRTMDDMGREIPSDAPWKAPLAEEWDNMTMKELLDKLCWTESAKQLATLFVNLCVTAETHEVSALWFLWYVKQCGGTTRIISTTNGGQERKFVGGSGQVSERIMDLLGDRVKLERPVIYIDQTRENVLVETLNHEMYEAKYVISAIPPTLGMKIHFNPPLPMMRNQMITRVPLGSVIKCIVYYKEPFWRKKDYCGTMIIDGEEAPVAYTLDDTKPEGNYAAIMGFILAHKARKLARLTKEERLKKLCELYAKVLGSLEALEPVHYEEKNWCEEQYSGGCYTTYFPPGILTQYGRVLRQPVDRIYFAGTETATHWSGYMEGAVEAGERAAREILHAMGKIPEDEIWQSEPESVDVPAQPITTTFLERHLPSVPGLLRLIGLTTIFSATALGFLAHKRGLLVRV
Procedure: Biological evaluation of the synthesized melatonin derivatives over both MAO-A and MAO-B was performed as reported previously. A detailed description of the protocol is in the Supplementary Materials.
First, the synthesized melatonin analogues (3a–x) were biologically evaluated over an MAO-B recombinant enzyme. The experiment was performed using Amplex® Red reagent technology. This technology offers quantitative enzyme activity sensitive detection, a wider dynamic range, and fluorescence emission outside the range of compound autofluorescence (if any). The Amplex® Red reagent is a colorless substrate that reacts with H2O2 in a 1:1 stoichiometry to produce a highly fluorescent resorufin; therefore, the induced inhibitory effects of the melatonin analogues over MAO-B were examined via spectrophotometry where the fluorescence rate of resorufin dye formation was measured.
Accordingly, compounds 3n, 3r, and 3u–w were further tested to determine their IC50 values over MAO-B in triplicate from the dose–response inhibition curves using Sigma-Plot software 13.0.
6. Materials and methods of monoamine oxidase (MAO) enzyme assay
The inhibitory activity of MAO-A, B enzyme of the compounds was evaluated based on previously described method. The MAO activity was measured in relative fluorescence units (RFU) evoked by peroxidase-catalyzed oxidation of Amplex Red® to resorufin, in which H2O2 generated by MAO reaction was used as the […]. Human recombinant MAO-A (hMAO-A) and MAO-B (hMAO-B) enzyme expressed in insect cells were obtained from Sigma Aldrich. The 2 μL of test compound in DMSO (final concentration: 1 nM – 10 μM) was treated with 98 μL of hMAO enzyme solution in 50 mM sodium phosphate buffer (pH 7.4, final protein amounts: ~1.25 μg protein/well for MAO-A and ~2.5 μg protein/well for MAO -B) on 96-well black plate and incubated for 15 min at 37 °C. Then 100 μL of reaction working solution which is mixed solution of 400 μM Amplex Red® (Cayman, final concentration: 200 μM), 2 U/mL horseradish peroxidase ( Sigma-Aldrich, final concentration: 1 U/mL) and 2 mM substrate ( p-tyramine for MAO -A, benzylamine for MAO -B, Sigma-Aldrich, final concentration: 1 mM) in 50 mM sodium phosphate buffer (pH 7.4) were added and incubated for 20 min at 37 °C in the dark. The fluorescent intensity was quantified using a microplate reader (SpectraMax®i3, Molecular Device) with an excitation at 545 nm and an emission at 590 nm. The 50% inhibitory concentrations (IC50) of compounds were determined as the mean ± S.E.M. in triplicate from the dose-response inhibition curves using SigmaPlot® 13.0. […]

[2] = system: PC12 cells; test: Cytotoxicity in PC12 cells (MTT assay); assay type: cell-based, rat; conditions: 10 and 30 μM, 24 h
Procedure: (§1) Control cells were incubated in an equivalent volume of DMSO to a final concentration of 0.3%. Neuroprotective effects of the tested compounds on the toxicity induced by 6-OHDA or rotenone in PC12 cells were evaluated as described previously with slight modifications. In brief, cells were pre-treated with the tested compounds or rasagiline at the indicated concentrations for 4 h. Next, they were exposed to 6-OHDA (50 μM) or rotenone (1 μM) for 24 h. In another set of experiments, the influence of HO-1 inhibitor, ZnPP, on the neuroprotective effects of the tested compounds against 6-OHDA-induced oxidative damage was investigated as previously reported. Briefly, the cells were pre-treated with the tested compounds for 4 h and then incubated with 0.2 µM of ZnPP for 30 min. Subsequently, 6-OHDA was added at a final concentration of 50 µM and incubated for 24 h.
(§2) After the desired treatment, cell viability was determined by MTT assay as described previously. Briefly, MTT was added to the cells at the final concentration of 0.5 mg/mL, which was followed by incubation for 3 h at 37 °C. […] The absorbance of the dissolved solution was measured at 550 nm using a microplate reader (SpectraMax M2^e, Molecular Devices, Sunnyvale, CA, USA). The cell viability was presented as the percentage of the absorbance measured in the vehicle-treated control cells.
Cell viabilities were measured by MTT assay.

[3] = system: PC12 cells; test: Neuroprotection against rotenone-induced toxicity in PC12 cells (MTT); conditions: Rattus norvegicus, PC-12, 24 h, read-out: IC50 of protection from rotenone-induced toxicity
Procedure: as §1
After the desired treatment, cell viability was determined by MTT assay as described previously. Briefly, MTT was added to the cells at the final concentration of 0.5 mg/mL, which was followed by incubation for 3 h at 37 °C. The supernatants were carefully removed, and then, 300 μL of DMSO was added to each well to dissolve formazan precipitate. The absorbance of the dissolved solution was measured at 550 nm using a microplate reader (SpectraMax M2^e, Molecular Devices, Sunnyvale, CA, USA). The cell viability was presented as the percentage of the absorbance measured in the vehicle-treated control cells.

[4] = system: PC12 cells; conditions: ZnPP 0.2 µM, 6-OHDA 50 µM 24 h
Procedure: as §1, §2

## O=C(Nc1ccc2[nH]ccc2c1)c1cccc(Cl)c1 [3n, 3-Chloro-N-(1H-indol-5-yl)benzamide]
[1]
  Selectivity Index (SI): >71
  IC50: 1410 nM
  % Inhibition of MAO-B at 10 µM: 76.79 ± 0.27%
  inhibition at 10 µM: > 70%
[2]
  cytotoxic effects on PC12 cells: did not show any significant cytotoxic effects
[3]
  IC50: 1400 nM
[4]
  effect of ZnPP on protective effects against 6-OHDA-induced toxicity: completely abolished

## O=C(Nc1ccc2[nH]ccc2c1)c1cccc(Br)c1 [3r, 3-Bromo-N-(1H-indol-5-yl)benzamide]
[1]
  Selectivity Index (SI): >109
  IC50: 910 nM
  % Inhibition of MAO-B at 10 µM: 87.00 ± 0.03%
  inhibition at 10 µM: > 70%
[2]
  cytotoxic effects on PC12 cells: did not show any significant cytotoxic effects
[3]
  IC50: 870 nM
[4]
  effect of ZnPP on protective effects against 6-OHDA-induced toxicity: completely abolished

From paper PMC8533333, “Melatonin Analogues Potently Inhibit MAO-B and Protect PC12 Cells against Oxidative Stress” (Antioxidants, 2021)
